Test results reported in US4322423A, “4-Phenyl-4,5,6,7-tetrahydro-thieno(2,3-C)pyridines and salts thereof” (Boehringer Ingelheim GmbH, priority 1977, dated 1982).
Like-named read-outs stand apart in the source and are kept apart here.

Assays:
[1] = system: hypothermic effect caused by reserpine; experiment: reserpine-antagonism, elimination of the hypothermic effect caused by reserpine; format: in vivo; conditions: Mus musculus, mice, oral, 17 hours after 2 mg/kg i.p. reserpine
Description: A further test for determining the anti-depressant activity is the reserpine-antagonism, the elimination of the hypothermic effect caused by reserpine. The test is carried out on mice, using 5 animals per dose. 17 Hours after i.p. administration of 2 mg/kg of reserpine, the body temperature is measured peripherally at a room temperature of 19° C. Afterwards, the test substance is administered orally, and the body temperature is measured after elapse of 1, 3, 5, and 7 hours. For each measurement a medium effective dose (ED50) is determined. This is the dose at which the body temperature of the animals treated with reserpine approaches the normal temperature of the untreated controls by 50%.

[2] = system: uptake of serotonine in the neurons; experiment: inhibition of serotonine uptake, synaptosomes from homogenized isolated cerebrum of the rat; format: biochemical; conditions: ten minutes at 37° C., 50% uptake inhibition, read-out: Serotinine inhibition IC 50
Description: (§1) It is known that various forms of depressions cause in certain sections of the brain a deficiency of biogenetic amines, especially of noradrenaline and serotonine; the biogenetic amines may be multiplied by inhibiting the uptake in the neurons. […] The test is performed on the homogenized, isolated cerebrum of the rat. A suspension of synaptosomes thus obtained is incubated with […] noradrenaline or serotonine and various concentrations of a solution of the test substance in water for ten minutes at 37° C. After completion of the incubation, the medium is separated by filtering, and the radioactivity of the suspension of synaptosomes is measured. A control test without test substance is made simultaneously in order to determine the quantity of uptake of the radioactive amines. The quantity of the test substance in mols which suffices for inhibiting 50% of the uptake is designated as IC 50.

[3] = system: uptake of noradrenaline in the neurons; experiment: inhibition of noradrenaline uptake, synaptosomes from homogenized isolated cerebrum of the rat; format: biochemical; conditions: ten minutes at 37° C., 50% uptake inhibition, read-out: Noradrenalin inhibition IC 50
Description: as §1

[4] = 1 hr., read-out: Reserpine antagonism ED50 after 1 hr.
[5] = 3 hrs., read-out: Reserpine antagonism ED50 after 3 hrs.
[6] = 5 hrs., read-out: Reserpine antagonism ED50 after 5 hrs.
[7] = 7 hrs., read-out: Reserpine antagonism ED50 after 7 hrs.

IC50 [2]	IC50 [3]	Compound	ED50 [1, 4]	ED50 [1, 5]	ED50 [1, 6]	ED50 [1, 7]
0.54 µM	280 nM	Cc1cc2c(s1)CN(C)CC2c1ccc(Br)cc1.Cl (stereo not drawn) [2,6-Dimethyl-4-(p-bromophenyl)-4,5,6,7-tetrahydro-thieno[2,3-c]pyridine hydrochloride]	1.7 mg/kg	2.7 mg/kg	4.6 mg/kg	80 mg/kg
80 µM	560 nM	Cc1cc2c(s1)CN(C)CC2c1ccccc1.Cl (stereo not drawn) [2,6-dimethyl-4-phenyl-4,5,6,7-tetrahydro-thieno[2,3-c]pyridine hydrochloride]	19 mg/kg	25 mg/kg	80 mg/kg	80 mg/kg
5.4 µM	1600 nM	CN1Cc2sc(Cl)cc2C(c2ccc(Cl)cc2)C1.Cl (stereo not drawn) [2-Chloro-4-(p-chloro-phenyl)-6-methyl-4,5,6,7-tetrahydro-thieno[2,3-c]pyridine hydrochloride]	16 mg/kg	8.5 mg/kg	9.5 mg/kg	10 mg/kg
> 10 µM	1400 nM	CN1Cc2sc(Cl)cc2C(c2ccccc2)C1.Cl (stereo not drawn) [2-Chloro-4-phenyl-6-methyl-4,5,6,7-tetrahydro-thieno[2,3-c]pyridine hydrochloride]	13 mg/kg	30 mg/kg	90 mg/kg	90 mg/kg
4.1 µM	1600 nM	CN1Cc2sc(Br)cc2C(c2ccc(Br)cc2)C1 (stereo not drawn) [2-bromo-4-(p-bromophenyl)-6-methyl-4,5,6,7-tetrahydro-thieno[2,3-c]pyridine]	55 mg/kg	7.5 mg/kg	32 mg/kg	100 mg/kg
9 µM	640 nM	Cc1ccc(C2CN(C)Cc3sc(Br)cc32)cc1.Cl (stereo not drawn) [2-bromo-4-(p-tolyl)-6-methyl-4,5,6,7-tetrahydro thieno[2,3-c] pyridine hydrochloride]	48 mg/kg	80 mg/kg	80 mg/kg	80 mg/kg
3.5 µM	1000 nM	CN1Cc2sc(Cl)cc2C(c2ccc(Br)cc2)C1.Cl (stereo not drawn) [2-chloro-4-(4-bromophenyl)-6-methyl-4,5,6,7-tetrahydro-thieno[2,3-c] pyridine hydrochloride]	50 mg/kg	3 mg/kg	4.2 mg/kg	38 mg/kg
> 10 µM	900 nM	Cc1ccc(C2CN(C)Cc3sc(Cl)cc32)cc1.Cl (stereo not drawn) [2-chloro-4-(p-tolyl)-6-methyl-4,5,6,7-tetrahydro-thieno[2,3-c] pyridine hydrochloride]	44 mg/kg	12.5 mg/kg	18 mg/kg	20 mg/kg
